Measured values: patent US9637490B2, “Antifungal 5,6-dihydro-4-[(difluoroethyl)phenyl]-4H-pyrrolo[1,2-α][1,4]benzodiazepine and 4-(difluoroethyl)phenyl-6H-pyrrolo[1,2-α][1,4]benzodiazepine derivatives” (Janssen Pharmaceutica NV, priority 2010, dated 2017)

Experiments:
Microsporum canis B68128 = experiment: Antifungal activity in vitro (resazurin susceptibility screen), Inf. B; format: cell-based; details: Microsporum canis, B68128, Microsporum canis B68128; 27 °C, 9 days, resa time 24 hours
Procedure, shortened: (§1)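 Compounds were tested in 2- or 4-fold serial dilution up to 64 μM against cryopreserved isolates (10^3 cfu/well) in RPMI-1640 with L-glutamine, 2% glucose and MOPS pH 7.0. Incubation ran 24 h at 37° C for yeasts to a week or more at 27° C for dermatophytes; growth was read by resazurin fluorescence (ex 550/em 590 nm).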

Rhizopus oryzae IHEM5223 = experiment: Antifungal activity in vitro (resazurin susceptibility screen), Inf. J; format: cell-based; details: Rhizopus arrhizus, 37 °C, 24 hours, resa time 6 hours
Procedure, shortened: as §1

[1] = test system: Sporothrix schenkii B62482; experiment: Antifungal activity in vitro (resazurin susceptibility screen), Inf. A; format: cell-based; details: Sporothrix, B62482, Sporothrix schenkii B62482; 27 °C, 4 days, resa time 24 hours
Procedure, shortened: as §1

[2] = In vivo pharmacokinetic determinations (bioavailability) in guinea pigs; details: guinea pig, po
Procedure: Three animals (mean weight 20±7 g for mice and 275±20 for Guinea pigs) were used per dose route, time point and formulation.
For the oral (PO) solution formulation, compound was dissolved in a 20% hydroxypropyl-β-cyclodextrin (HP-β-CD) solution at a final concentration of 1 mg/ml. HCl was added to facilitate dissolution. After dissolution, the pH was brought up to 3.7 with NaOH. Mannitol was added to make the solution isotonic. For the PO suspension formulation, compound was suspended in 0.5% methocel at a final concentration of 1 mg/ml. The formulations were stored at room temperature, protected from light and analysed quantitatively with LC-MS/MS on the day of preparation. Stability of the formulations was checked on the day of dosing.
The animals were dosed orally by gastric intubation at 10 ml/kg to obtain a final dose 10 mg/kg. Three dosed animals were sacrificed for blood sampling at 15 and 30 min, 1, 2, 3, 4, 6, 8 and 24 h after PO dose administration as a solution and at 30 min, 1, 2, 4, 6, 8 and 24 h after PO dose administration as a suspension.
Blood was collected by multiple sampling from a tail vein into Multivette® 600 K3E tubes (Sarstedt). Samples were placed immediately at approximately 4° C. and plasma was obtained following centrifugation at 4° C. for 10 minutes at approximately 1900×g. All samples were shielded from daylight and stored at ≦−18° C. prior to analysis.
Plasma samples were analysed for dosed compound using a qualified research LC-MS/MS method. The key analytical performance (linearity, upper and lower limit of quantification, accuracy and precision) of the method was reported together with the plasma concentrations.
A limited pharmacokinetic analysis was performed using WinNonlin™ Professional (Version 5.2.1). A non-compartmental analysis using the lin/log trapezoidal rule with lin/log interpolation was used for all data.

[3] = test system: Microsporum canis (strain B68128); experiment: Test D.4.1: activity against M. canis in guinea-pigs after oral treatment for 7 consecutive days; format: in vivo; parameters: key to semi-quantitative lesion score (mean): lesion score 0–3.5 by severity and size of lesion
Procedure, shortened: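 Female Duncan-Hartley guinea pigs, scarified depilated dorsum inoculated with 10^6 cfu M. canis spores in honey-water. Compounds in methocel 0.5%/Tween 80 vehicle given by oral gavage once daily for 7 days, starting ~2 h pre-infection; itraconazole reference. Lesions scored semi-quantitatively (0–3.5) on days 3–20 post-infection; mean scores.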

CC(F)(F)c1ccc(C2=NCc3c(Cl)cccc3-n3cccc32)cc1 [Compound 4, 7-chloro-4-[4-(1,1-difluoroethyl)phenyl]-6H-pyrrolo[1,2-a][1,4]benzodiazepine]
IC50 (Microsporum canis B68128): 0.479 µM
IC50 (Rhizopus oryzae IHEM5223): > 64.6 µM
IC50 [1]: 12 µM
bioavailability [2]: 35%
semi-quantitative lesion score (mean) ([3]; oral 5 mg/kg once daily for 7 days, 3 DPI): 0
semi-quantitative lesion score (mean) ([3]; oral 5 mg/kg once daily for 7 days, 5 DPI): 0.67
semi-quantitative lesion score (mean) ([3]; oral 5 mg/kg once daily for 7 days, 7 DPI): 1.50
semi-quantitative lesion score (mean) ([3]; oral 5 mg/kg once daily for 7 days, 10 DPI): 2.00
semi-quantitative lesion score (mean) ([3]; oral 5 mg/kg once daily for 7 days, 12 DPI): 2.17
semi-quantitative lesion score (mean) ([3]; oral 5 mg/kg once daily for 7 days, 14 DPI): 1.83
semi-quantitative lesion score (mean) ([3]; oral 5 mg/kg once daily for 7 days, 17 DPI): 1.33
semi-quantitative lesion score (mean) ([3]; oral 5 mg/kg once daily for 7 days, 20 DPI): 1.17
activity compared with the terbinafine group (G2, 10 mg/kg) ([3]; oral 10 mg/kg once daily for 7 days): comparable to G2
semi-quantitative lesion score (mean) ([3]; oral 10 mg/kg once daily for 7 days, 3 DPI): 0
semi-quantitative lesion score (mean) ([3]; oral 10 mg/kg once daily for 7 days, 5 DPI): 0
semi-quantitative lesion score (mean) ([3]; oral 10 mg/kg once daily for 7 days, 7 DPI): 0.33
semi-quantitative lesion score (mean) ([3]; oral 10 mg/kg once daily for 7 days, 10 DPI): 1.00
semi-quantitative lesion score (mean) ([3]; oral 10 mg/kg once daily for 7 days, 12 DPI): 1.50
semi-quantitative lesion score (mean) ([3]; oral 10 mg/kg once daily for 7 days, 14 DPI): 1.50
semi-quantitative lesion score (mean) ([3]; oral 10 mg/kg once daily for 7 days, 17 DPI): 0.50
semi-quantitative lesion score (mean) ([3]; oral 10 mg/kg once daily for 7 days, 20 DPI): 0.33
activity compared with the terbinafine group (G2, 10 mg/kg) ([3]; oral 40 mg/kg once daily for 7 days): remarkably more active than the terbinafine group
semi-quantitative lesion score (mean) ([3]; oral 40 mg/kg once daily for 7 days, 3 DPI): 0
semi-quantitative lesion score (mean) ([3]; oral 40 mg/kg once daily for 7 days, 5 DPI): 0.17
semi-quantitative lesion score (mean) ([3]; oral 40 mg/kg once daily for 7 days, 7 DPI): 0.17
semi-quantitative lesion score (mean) ([3]; oral 40 mg/kg once daily for 7 days, 10 DPI): 0.17
semi-quantitative lesion score (mean) ([3]; oral 40 mg/kg once daily for 7 days, 12 DPI): 0.17
semi-quantitative lesion score (mean) ([3]; oral 40 mg/kg once daily for 7 days, 14 DPI): 0
semi-quantitative lesion score (mean) ([3]; oral 40 mg/kg once daily for 7 days, 17 DPI): 0.17
semi-quantitative lesion score (mean) ([3]; oral 40 mg/kg once daily for 7 days, 20 DPI): 0.17
